Assay results as given in article PMC6270991, “Design and Synthesis of Thiazolo[5,4-f]quinazolines as DYRK1A Inhibitors, Part I” (Molecules, 2014).
Like-named read-outs stand apart in the source and are kept apart here.

What was measured:
[1] = molecular target: DYRK1A (Rattus norvegicus, UniProt Q63470); test: DYRK1A in vitro kinase assay (33P-ATP, Woodtide substrate); format: biochemical
Description: (§1) Buffer A: MgCl2 (10 mM), 1 mM ethylene glycol-bis(2-aminoethylether)-N,N,N',N'-tetraacetic acid (EGTA), 1 mM dithiothreitol (DTT), 25 mM Tris-HCl pH 7.5, 50 μg heparin/mL.
(§2) Controls were performed with appropriate dilutions of dimethylsulfoxide (DMSO). IC50 values were calculated from dose-response curves established by Sigma-Plots. The GSK-3, CK1, DYRK1A and CLK1 peptide substrates were obtained from Proteogenix (Oberhausbergen, France).
(§3) CDK5/p25. (Human, recombinant) was prepared as previously described. […] ATP (3000 Ci/mmol; 10 mCi/mL) in a final volume of 30 μL. After 30 min incubation at 30 °C, 25 μL aliquots of supernatant were spotted onto sheets of Whatman P81 phosphocellulose paper, and 20 s later, the filters were washed eight times (for at least 5 min each time) in a solution of 10 mL phosphoric acid/L of water. The wet filters were counted in the presence of 1 mL ACS (Amersham) scintillation fluid.

[2] = molecular target: CK1δ/ε; test: CK1δ/ε in vitro kinase assay (33P-ATP, CK1-specific peptide substrate); format: biochemical, Porcine; settings: 15 μM ATP, 30 min at 30 °C, triplicate; <50% inhibition at 10 µM reported as >10
Description: as §2, §3
CK1δ/ε. (Porcine brain, native) was assayed as described for CDK5/p25, but using the CK1-specific peptide substrate […]pSAYSITA [23].

[3] = molecular target: T1, CDK5/p25 (Homo sapiens, UniProt Q00535); test: CDK5/p25 in vitro kinase assay (33P-ATP, histone H1); format: biochemical; settings: read-out: CDK5 IC50
T1 construct: made in house
Description: as §1, §2, §3

[4] = molecular target: GSK-3α/β; test: GSK-3α/β in vitro kinase assay (33P-ATP, GS-1 peptide); format: biochemical, Porcine; settings: 15 μM ATP, 30 min at 30 °C, triplicate; <50% inhibition at 10 µM reported as >10; read-out: GSK3 IC50
Description: as §1, §2, §3
GSK-3α/β. (Porcine brain, native) was assayed as described for CDK5/p25, but in buffer A and using a GSK-3 specific substrate (GS-1: […]pSEDEEE) (pS stands for phosphorylated serine).

[5] = 15 μM ATP, 30 min at 30 °C, triplicate, <50% inhibition at 10 µM reported as >10

T1 sequence (Q00535 whole entry): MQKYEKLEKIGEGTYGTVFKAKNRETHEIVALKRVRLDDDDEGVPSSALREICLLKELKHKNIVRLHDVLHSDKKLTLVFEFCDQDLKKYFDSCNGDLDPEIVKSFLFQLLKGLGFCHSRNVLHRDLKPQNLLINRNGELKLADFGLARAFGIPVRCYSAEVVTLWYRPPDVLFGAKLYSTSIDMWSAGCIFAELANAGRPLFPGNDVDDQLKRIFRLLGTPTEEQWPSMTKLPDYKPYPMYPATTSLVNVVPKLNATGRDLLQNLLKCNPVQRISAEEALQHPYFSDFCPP
T1 sequence (Q15078 99-307 partner limits assumed): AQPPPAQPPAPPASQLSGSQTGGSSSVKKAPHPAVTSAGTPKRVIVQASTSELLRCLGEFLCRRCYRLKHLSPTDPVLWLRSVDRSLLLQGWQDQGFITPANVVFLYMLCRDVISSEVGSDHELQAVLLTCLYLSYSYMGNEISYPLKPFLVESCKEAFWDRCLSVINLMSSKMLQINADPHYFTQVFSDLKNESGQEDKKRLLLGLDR

SMILES: COc1ccc(Nc2ncnc3ccc4nc(C#N)sc4c23)cc1 [Compound 7, 9-(4-Methoxyphenylamino)thiazolo[5,4-f]quinazoline-2-carbonitrile]
- IC50 [1]: > 10 µM
- IC50 [2]: > 10 µM
- IC50 [3]: > 10 µM
- IC50 [4]: > 10 µM
- melting point: > 260 °C

SMILES: N#Cc1nc2ccc3ncnc(Nc4ccc5c(c4)OCO5)c3c2s1 [Compound 8, 9-(Benzo[d][1,3]dioxol-5-ylamino)thiazolo[5,4-f]quinazoline-2-carbonitrile]
- IC50 [1]: > 10 µM
- IC50 [2]: > 10 µM
- IC50 [3]: > 10 µM
- IC50 [4]: > 10 µM
- melting point: > 260 °C

SMILES: N#Cc1nc2ccc3ncnc(Nc4ccc(Br)cc4F)c3c2s1 [Compound 9, 9-(4-Bromo-2-fluorophenylamino)thiazolo[5,4-f]quinazoline-2-carbonitrile]
- IC50 [1]: > 10 µM
- IC50 [2]: > 10 µM
- IC50 [3]: > 10 µM
- IC50 [4]: > 10 µM
- melting point: > 260 °C

SMILES: N#Cc1nc2ccc3ncnc(Nc4ccc(F)c(Cl)c4)c3c2s1 [Compound 10, 9-(3-Chloro-4-fluorophenylamino)thiazolo[5,4-f]quinazoline-2-carbonitrile]
- IC50 [1]: > 10 µM
- IC50 [2]: > 10 µM
- IC50 [3]: > 10 µM
- IC50 [4]: > 10 µM
- melting point: 252 °C

SMILES: N=C(NCCN1CCOCC1)c1nc2ccc3ncnc(Nc4ccc(F)c(Cl)c4)c3c2s1 [Compound 10a, 9-(3-Chloro-4-fluorophenylamino)-N-(2-morpholinoethyl)thiazolo[5,4-f]quinazoline-2-carboximid-amide]
- IC50 [1, 5]: > 10 µM
- IC50 [2]: > 10 µM
- IC50 [3, 5]: > 10 µM
- IC50 [4]: 3.5 µM

SMILES: N=C(NCCN1CCCCC1)c1nc2ccc3ncnc(Nc4ccc(F)c(Cl)c4)c3c2s1 [Compound 10b, 9-(3-Chloro-4-fluorophenylamino)-N-(2-(piperidin-1-yl)ethyl)thiazolo[5,4-f]quinazoline-2-carboxi-midamide]
- IC50 [1, 5]: > 10 µM
- IC50 [2]: > 10 µM
- IC50 [3, 5]: > 10 µM
- IC50 [4]: 1.4 µM

SMILES: N=C(NCCN1CCCC1)c1nc2ccc3ncnc(Nc4ccc(F)c(Cl)c4)c3c2s1 [Compound 10c, 9-(3-Chloro-4-fluorophenylamino)-N-(2-(pyrrolidin-1-yl)ethyl)thiazolo[5,4-f]quinazoline-2-carboxi-midamide]
- IC50 [1, 5]: > 10 µM
- IC50 [2]: > 10 µM
- IC50 [3, 5]: > 10 µM
- IC50 [4]: 2.5 µM

SMILES: CN(C)CCNC(=N)c1nc2ccc3ncnc(Nc4ccc(F)c(Cl)c4)c3c2s1 [Compound 10d, 9-(3-Chloro-4-fluorophenylamino)-N-(2-(dimethylamino)ethyl)thiazolo[5,4-f]quinazoline-2-carboxi-midamide]
- IC50 [1, 5]: > 10 µM
- IC50 [2]: > 10 µM
- IC50 [3, 5]: > 10 µM
- IC50 [4]: 3 µM

SMILES: CCN(CC)CCNC(=N)c1nc2ccc3ncnc(Nc4ccc(F)c(Cl)c4)c3c2s1 [Compound 10e, 9-(3-Chloro-4-fluorophenylamino)-N-(2-(diethylamino)ethyl)thiazolo[5,4-f]quinazoline-2-carboxi-midamide]
- IC50 [1, 5]: > 10 µM
- IC50 [2]: > 10 µM
- IC50 [3, 5]: > 10 µM
- IC50 [4]: 7 µM

SMILES: N=C(NCc1ccccc1)c1nc2ccc3ncnc(Nc4ccc(F)c(Cl)c4)c3c2s1 [Compound 10f, N-Benzyl-9-(3-chloro-4-fluorophenylamino)thiazolo[5,4-f]quinazoline-2-carboximidamide]
- IC50 [1]: > 10 µM
- IC50 [2]: > 10 µM
- IC50 [3]: > 10 µM
- IC50 [4]: > 10 µM

SMILES: CN(C)C(=N)c1nc2ccc3ncnc(Nc4ccc(F)c(Cl)c4)c3c2s1 [Compound 10g, 9-(3-Chloro-4-fluorophenylamino)-N,N-dimethylthiazolo[5,4-f]quinazoline-2-carboximidamide]
- IC50 [1]: 6.5 µM
- IC50 [2]: > 10 µM
- IC50 [3]: > 10 µM
- IC50 [4]: 7.2 µM
